Common to all, as to type: in vivo, human
For test [1], the system named is numbness, tingling and severe pain in feet and legs. Description: Case report: numbness, tingling and severe pain in feet, legs and hands, sublingual Substance P. The following applies: person; sublingual administration as in Example 1. The procedure: Their disease appeared to be initiated by chronic exposure to floor stripper which caused RUDS (Reactive Upper Airway Dysfunction). […] Each drop contained 8×10−^5 mg synthetic Substance P (Sigma) in phosphate buffered saline. According to this example, a person presented with a history of numbness, tingling and severe pain in feet and legs eight years earlier. During the year immediately preceding their first office visit, the discomfort had spread to their hands. […] No cause of their discomfort could be determined, and the only relief they obtained was from narcotic analgesics.

Test [2] has as its system severe sciatic-like pain of the hip. In words: Case report: severe sciatic-like hip pain in a diabetic subject, sublingual Substance P. Particulars: person with diabetes; sublingual administration as in Example 1. Here is the method:
Their disease appeared to be initiated by chronic exposure to floor stripper which caused RUDS (Reactive Upper Airway Dysfunction). […] Each drop contained 8×10−^5 mg synthetic Substance P (Sigma) in phosphate buffered saline. According to this example, a person presented with severe sciatic-like pain of the hip of long duration. The subject also presented with a diagnosis of diabetes. […] They continue well for over two years.

In test [3] the test system is RUDS manifested as severe hoarseness or aphonia. In words: Case report: RUDS with severe hoarseness or aphonia, sublingual Substance P. Particulars: person, one drop four times daily or more if needed. The procedure:
Their disease appeared to be initiated by chronic exposure to floor stripper which caused RUDS (Reactive Upper Airway Dysfunction). […] Each drop contained 8×10−^5 mg synthetic Substance P (Sigma) in phosphate buffered saline. According to this example, a person presented RUDS that manifested as severe hoarseness or even aphonia if exposed to volatile chemicals, and especially to fragrances. They had suffered for several years after being exposed to fragrances from several co-workers using multiple perfumes. Their airway problem was reduced only by complete avoidance of any exposure to volatile chemicals which dramatically changing their lifestyle. […] Their RUDS continues to be controlled by taking one drop of Substance P four times daily, or more frequently if needed.

In test [4] the test system is arthritis-like pain and inflammation of the knuckles. In words: Case report: arthritis-like pain and inflammation of the knuckles, sublingual Substance P. Particulars: person; after three days of sublingual drop therapy, continued after two months. The procedure:
Their disease appeared to be initiated by chronic exposure to floor stripper which caused RUDS (Reactive Upper Airway Dysfunction). […] Each drop contained 8×10−^5 mg synthetic Substance P (Sigma) in phosphate buffered saline. According to this example, a person with arthritis-like pain and inflammation of the knuckles but who tested negative for rheumatoid factor. […] The subject was treated by sublingual administration of Substance P according to the method. of Example 1.

Test [5] has as its system upper airway distress, persistent cough, RUDS (Reactive Upper Airway Dysfunction). In words: Case report: persistent cough from RUDS triggered by volatile chemicals, sublingual Substance P. The following applies: person with RUDS; sublingual drop 8×10−^5 mg, one drop per hour for three hours then four times daily. The procedure: His disease appeared to be initiated by chronic exposure to floor stripper which caused RUDS (Reactive Upper Airway Dysfunction). […] Each drop contained 8×10−^5 mg synthetic Substance P (Sigma) in phosphate buffered saline.

For the next test, the system named is chronic sciatic pain. In words: Case report: chronic disabling sciatic pain, sublingual Substance P. Particulars: person. Here is the method:
Their disease appeared to be initiated by chronic exposure to floor stripper which caused RUDS (Reactive Upper Airway Dysfunction). […] Each drop contained 8×10−^5 mg synthetic Substance P (Sigma) in phosphate buffered saline. According to this example, a person presented with a diagnosis of chronic sciatic pain that was disabling and of several years duration. Analgesics helped reduce the pain. The subject was treated by sublingual administration of Substance P according to the method of Example 1.

In test [6] the test system is repetitive, almost tic-like, exaggerated cough. Description: Case report: repetitive tic-like exaggerated cough, sublingual Substance P. Particulars: child. The procedure: Their disease appeared to be initiated by chronic exposure to floor stripper which caused RUDS (Reactive Upper Airway Dysfunction). […] Each drop contained 8×10−^5 mg synthetic Substance P (Sigma) in phosphate buffered saline. According to this example, a child presented with a repetitive, almost tic-like, exaggerated cough that was disruptive to their classmates and teacher. Several physicians were consulted without success and with no apparent cause found for the cough.

Ends that are not written are not given here.

Take “Substance P (RPKPQQFFGLM; not fully specified (C-terminus); UniProt P20366 58-68, looked up) [synthetic Substance P (Sigma) in phosphate buffered saline; a tachykinin naturally occurring in the body]”: in test [1], the “need for narcotic analgesics” value is “able to discontinue narcotics” and the pain relief result is “almost immediate pain relief”. Also, in test [2], the “effect on sciatic-like hip pain” value is given as “reduced the pain dramatically”. Moreover, the “effect on RUDS (hoarseness/aphonia)” value in test [3] was “significant improvement”. Further, in test [4], the “effect on arthritis-like pain and inflammation” value is recorded as ““remarkable” improvement”. For the same substance, the “effect on persistent cough” value in test [5] is reported as “stopped almost immediately”. Further, the “long-term control of sciatic pain” value with chronic sciatic pain (daily doses over several months) is “continued control of pain”. The “effect on chronic sciatic pain after first drop” value in the test with chronic sciatic pain (first sublingual drop) is “instantly and dramatically “turned off” the pain”. In addition, in test [6] (continued sublingual treatment), the “long-term control of cough disorder” value is recorded as “continued to control this disorder after more than a year”. In test [6] (sublingual administration as in Example 1), the effect on cough entry is reported as “stopped the cough within minutes”.

The values above are taken from US6437093B1, “Methods of treatment comprising administration of Substance P” (Milkhaus Laboratory, Inc., priority 2000, dated 2002).
